The record followed here is patent US12454529B2, “Piperazine cyclic ureas” (SIRONAX LTD., priority 2020, dated 2025).

Molecules are shown by their SMILES.

The subject of the first assay is HT-29 cells. Description: HT-29 cell necrosis/necroptosis inhibition (TNF-α + SMAC mimetic + zVAD-FMK; CellTiter-Glo cell viability). Type of assay: cell-based. The settings on record: Homo sapiens; HT-29 cells, TNF-α 10 ng/ml + SMAC mimetic 6 μM + zVAD-FMK 10 μM, 20 hours; geometric mean, 10 points in duplicate; read-out: EC50 (Cell activity; Necrosis/Necroptosis Inhibitory Activity, Compounds 1-142). The protocol:
Compounds 1-319 (denoted as Compound Nos. 1 through 319 in Table 3 and 4) of the disclosure were tested for binding and cellular RIP1 inhibitory activity following the experimental procedures described below.
• Cell line: HT-29 (ATCC® HTB-38™) • Culture medium: McCOY's 5A, Gibco, Cat No. 16600-082 • FBS, Gibco, Cat No. 10099-141C • Trypsin: Gibco, Cat No. 25200-056 • DMSO: Sigma, Cat No. 67-68-5, 1L • Assay plate: Corning #3903 • Compound dilution plate: Corning #3357 • Inducers: TNFα, GenScript, Cat No. Z01001-50, • SmacM, Cat. No., HY-15989, MedChemExpress (MCE) • Z_VAD FMK, TargetMol, T6013 • Cell Titer-Glo® Luminescent Cell Viability Assay Kit: Promega, Cat No. G7573 • EnVision: PerkinElmer, 2105-0010 Methods Cell Seeding
1. HT-29 cells were checked every day to make sure that they were healthy and growing as expected. They were subjected to sub-culturing when they were approximately 80% confluent.
2. The culture medium, McCOY's 5A medium (Gibco, Cat No. 16600-082) with 10% fetal bovine serum or FBS (Gibco, Cat No. 10099-141C), was pre-warmed in a 37° C. water bath for at least 30 min.
3. When the cells had reached a desired level of confluency of 80% in a T75 flask, the medium was aspirated, and the cells were washed with warm phosphate buffered saline or PBS two times.
4. 2-3 ml fresh warm trypsin (Gibco, Cat No. 25200-056) solution was added to the washed cells. The flask with the cells was transferred to a 37° C. incubator.
5. After 5 minutes, the side of the flask was tapped, and the flask was examined under a microscope for detachment of the cells to the flask. If necessary, the cells were kept in the incubator for an additional 5-10 minutes, with occasional tapping, until lifting was complete.
6. The trypsin reaction was neutralized by transferring 6-9 ml cell culture medium to sterile 15 ml conical tubes, and by centrifuging the cell culture at 300×g for 7 minutes to pellet the cells (supernatant decanted).
7. The cells were resuspended in fresh cell culture medium and the cell counting was performed using a hemocytometer.
8. 100 μl of the resuspended cell culture medium containing ˜5,000 cells were transferred into each well of the sterile 96-well cell culture plate (Corning 3903) and cultured overnight at 37° C. with 5% CO2.
Compound Titration and Treatment
1. All test compounds were dissolved in DMSO (Dimethyl sulfoxide) to create a 20 mM stock.
2. 3 μl of each compound 20 mM stock was mixed with 27 μl DMSO, and the compound solution was further diluted at a titration ratio of 1:3 (20 μl compound solution+40 μl DMSO) till the 10 points end.
3. All culture medium was removed from assay plates filled with HT-29 cell cultures. The cells were then washed with 1 PBS, and resuspended in fresh, FBS-free McCOY's 5A medium containing a cocktail of TNF-α (10 ng/ml), a SMAC mimetic compound (6 μM) and Z-VAD-fluoromethylketone or zVAD-FMK (10 μM) to stimulate the HT-29 cells to increase RIP1 kinase levels and necroptosis.
4. 0.5 μL of the diluted compound solution was added to the corresponding 96-well assay plates.
5. The assay plates were incubated for 20 hours at 37° C. with 5% CO2.
1. The CellTiter-Glo® Luminescent Cell Viability Assay was employed to detect the ATP levels of viable HT-29 cells.
2. The CellTiter-Glo® buffer and the lyophilized substrate were equilibrated to room temperature prior to use.
3. The CellTiter-Glo® substrate was resuspended with CellTiter-Glo® buffer, then mixed by gently vortexing to obtain a homogeneous solution.
4. 20 μl the enzyme/substrate mixture was transferred by multi-channel pipetting into 96-well assay plates.
5. The assay plates were placed on an orbital shaker and the contents were shaken for 3 minutes to induce cell lysis.
6. The assay plates were incubated at room temperature for 10 minutes to stabilize the luminescent signal.
7. The luminescence signals were read and recorded with EnVision.
8. The geometric mean EC50 values were calculated from 10 points response dose with duplicates. In
Background: In ATP-based viability assays light output follows the ATP content of the culture.
As for `O=C(N1CCN(c2ncc(F)c(-c3ccc(O)nc3)n2)CC1)N1N=CC[C@H]1c1cc(F)cc(F)c1` [Compound 25, (S)-(5-(3,5-difluorophenyl)-4,5-dihydro-1H-pyrazol-1-yl)(4-(5-fluoro-4-(6-hydroxypyridin-3-yl)pyrimidin-2-yl)piperazin-1-yl)methanone], the EC50 (as a rule, the concentration needed to bring the measured effect to its halfway point) lay within 0.1 to 100 nM.
Still for that read-out and setting: the result for `O=C(O)c1c[nH]c(-c2nc(N3CCN(C(=O)N4N=CC[C@H]4c4cc(F)cc(F)c4)CC3)ncc2F)c1` [Compound 21, (S)-5-(2-(4-(5-(3,5-difluorophenyl)-4,5-dihydro-1H-pyrazole-1-carbonyl)piperazin-1-yl)-5-fluoropyrimidin-4-yl)-1H-pyrrole-3-carboxylic acid] reads 0.1 to 100 nM; that for `Cc1cc(-c2nc(N3CCN(C(=O)N4N=CC[C@H]4c4cc(F)cc(F)c4)CC3)ncc2F)n(C)n1` [Compound 83, (S)-(5-(3,5-difluorophenyl)-4,5-dihydro-1H-pyrazol-1-yl)(4-(4-(1,3-dimethyl-1H-pyrazol-5-yl)-5-fluoropyrimidin-2-yl)piperazin-1-yl)methanone], 0.1 to 100 nM.
Still for that read-out and setting: the result for `NC(=O)c1cnn(-c2nc(N3CCN(C(=O)N4N=CC[C@H]4c4cc(F)cc(F)c4)CC3)ncc2F)c1` [Compound 101, (5)-1-(2-(4-(5-(3,5-difluorophenyl)-4,5-dihydro-1H-pyrazole-1-carbonyl)piperazin-1-yl)-5-fluoropyrimidin-4-yl)-1H-pyrazole-4-carboxamide] reads 0.1 to 100 nM.
For `Cc1cnn(C)c1-c1cc(N2CCN(C(=O)N3N=CC[C@H]3c3cc(F)cc(F)c3)CC2)ncc1F` [Compound 114, (S)-(5-(3,5-difluorophenyl)-4,5-dihydro-1H-pyrazol-1-yl)(4-(4-(1,4-dimethyl-1H-pyrazol-5-yl)-5-fluoropyridin-2-yl)piperazin-1-yl)methanone], the EC50 was 0.1 to 100 nM.
Still for that read-out and setting: then `Cc1n[nH]nc1-c1nc(N2CCN(C(=O)N3N=CC[C@H]3c3cc(F)cc(C#N)c3)CC2)ncc1F` [Compound 80, (S)-3-fluoro-5-(1-(4-(5-fluoro-4-(5-methyl-2H-1,2,3-triazol-4-yl)pyrimidin-2-yl)piperazine-1-carbonyl)-4,5-dihydro-1H-pyrazol-5-yl)benzonitrile], with 0.1 to 100 nM.
With `Cc1cc(-c2cc(N3CCN(C(=O)N4N=CC[C@H]4c4cc(F)cc(F)c4)CC3)ncc2F)n(C)n1` [Compound 116, (S)-(5-(3,5-difluorophenyl)-4,5-dihydro-1H-pyrazol-1-yl)(4-(4-(1,3-dimethyl-1H-pyrazol-5-yl)-5-fluoropyridin-2-yl)piperazin-1-yl)methanone], the EC50 fell in the range of 0.1 to 100 nM.
As for `Cc1cc(-c2nc(N3CCN(C(=O)N4N=CC[C@H]4c4cncc(F)c4)CC3)ncc2F)n(C)n1` [Compound 86, (S)-(4-(4-(1,3-dimethyl-1H-pyrazol-5-yl)-5-fluoropyrimidinyl)piperazin-1-yl)(5-(5-fluoropyridin-3-yl)-4,5-dihydro-1H-pyrazol-1-yl)methanone], the EC50 lay within 0.1 to 100 nM.
The same measure, in the same setting: the result for `Cc1nc(C)n(-c2cc(N3CCN(C(=O)N4N=CC[C@H]4c4cc(F)cc(F)c4)CC3)ncn2)n1` [Compound 90, (S)-(5-(3,5-difluorophenyl)-4,5-dihydro-1H-pyrazol-1-yl)(4-(6-(3,5-dimethyl-1H-1,2,4-triazol-1-yl)pyrimidin-4-yl)piperazin-1-yl)methanone] reads 0.1 to 100 nM; that for `O=C(N1CCN(c2nccc(-c3cc[nH]n3)n2)CC1)N1N=CC[C@H]1c1cc(F)cc(F)c1` [Compound 33, (S)-(4-(4-(1H-pyrazol-3-yl)pyrimidin-2-yl)piperazin-1-yl)(5-(3,5-difluorophenyl)-4,5-dihydro-1H-pyrazol-1-yl)methanone], 0.1 to 100 nM.
On to `N#Cc1cc(F)cc([C@@H]2CC=NN2C(=O)N2CCN(c3nccc(-n4cc(C(N)=O)cn4)n3)CC2)c1` [Compound 102, (S)-1-(2-(4-(5-(3-cyano-5-fluorophenyl)-4,5-dihydro-1H-pyrazole-1-carbonyl)piperazin-1-yl)pyrimidin-4-yl)-1H-pyrazole-4-carboxamide], for which the EC50 fell in the range of 0.1 to 100 nM.

Still in this assay, the particulars now being: Homo sapiens; HT-29 cells, TNF-α 10 ng/ml + SMAC mimetic 6 μM + zVAD-FMK 10 μM, 20 hours; geometric mean, 10 points in duplicate; read-out: EC50 (Cell activity; Necrosis/Necroptosis Inhibitory Activity, Compounds 143-323).
Take `Cc1cc[nH]c(=O)c1-c1nc(N2CCN(C(=O)N3N=CC[C@H]3c3cc(F)cc(C#N)c3)CC2)ncc1F` [Compound 164, (S)-3-fluoro-5-(1-(4-(5-fluoro-4-(4-methyl-2-oxo-1,2-dihydropyridin-3-yl)pyrimidin-2-yl)piperazine-1-carbonyl)-4,5-dihydro-1H-pyrazol-5-yl)benzonitrile]: the EC50 is 0.1 to 100 nM.
With `Cc1cnn(C)c1-c1ccc(F)c(N2CCN(C(=O)N3N=CCC3c3ncccc3Cl)CC2)n1` (stereo not shown) [Compound 300, (5-(3-chloropyridin-2-yl)-4,5-dihydro-1H-pyrazol-1-yl)(4-(6-(1,4-dimethyl-1H-pyrazol-5-yl)-3-fluoropyridin-2-yl)piperazin-1-yl)methanone], the EC50 was in the range of 0.1 to 100 nM.
With `Cc1cnn(C)c1-c1ccc(F)c(N2CCN(C(=O)N3N=CCC3c3ccccn3)CC2)n1` (stereo not shown) [Compound 297, (4-(6-(1,4-dimethyl-1H-pyrazol-5-yl)-3-fluoropyridin-2-yl)piperazin-1-yl)(5-(pyridin-2-yl)-4,5-dihydro-1H-pyrazol-1-yl)methanone], the EC50 was 0.1 to 100 nM.
Take `Cc1ncn(-c2nc(N3CCN(C(=O)N4N=CC[C@H]4c4ccccc4)CC3)ncc2F)n1` [Compound 309, (S)-(4-(5-fluoro-4-(3-methyl-1H-1,2,4-triazol-1-yl)pyrimidin-2-yl)piperazin-1-yl)(5-phenyl-4,5-dihydro-1H-pyrazol-1-yl)methanone]: the EC50 lay in the range of 0.1 to 100 nM.
The same measure, in the same setting: the result for `Cc1nc(C)n(-c2nc(N3CCN(C(=O)N4N=CC[C@H]4c4cncc(F)c4)CC3)ncc2F)n1` [Compound 248, (S)-(4-(4-(3,5-dimethyl-1H-1,2,4-triazol-1-yl)-5-fluoropyrimidin-2-yl)piperazin-1-yl)(5-(5-fluoropyridin-3-yl)-4,5-dihydro-1H-pyrazol-1-yl)methanone] reads 0.1 to 100 nM; that for `Cc1csc(C2CC=NN2C(=O)N2CCN(c3cc(-c4c(C)cnn4C)ncc3F)CC2)n1` (stereo not shown) [Compound 157, (4-(2-(1,4-dimethyl-1H-pyrazol-5-yl)-5-fluoropyridin-4-yl)piperazin-1-yl)(5-(4-methylthiazol-2-yl)-4,5-dihydro-1H-pyrazol-1-yl)methanone], 100 to 1000 nM.
Still for that read-out and setting: then `Cc1nn(-c2ccnc(N3CCN(C(=O)N4N=CC[C@H]4c4cc(F)cc(C#N)c4)CC3)n2)c(C)c1Br` [Compound 273, (S)-3-(1-(4-(4-(4-bromo-3,5-dimethyl-1H-pyrazol-1-yl)pyrimidinyl)piperazine-1-carbonyl)-4,5-dihydro-1H-pyrazol-5-yl)-5-fluorobenzonitrile], with 0.1 to 100 nM; and `Cc1nc(C)n(-c2nc(N3CCN(C(=O)N4N=CC[C@H]4c4cc(F)cc(F)c4F)CC3)ncc2F)n1` [Compound 264, (S)-(4-(4-(3,5-dimethyl-1H-1,2,4-triazol-1-yl)-5-fluoropyrimidin-2-yl)piperazin-1-yl)(5-(2,3,5-trifluorophenyl)-4,5-dihydro-1H-pyrazol-1-yl)methanone], with 0.1 to 100 nM.
